The IC50 is the midpoint of a concentration-inhibition curve.

Where a name gives a salt, the structure may show the parent alone.

The values that follow come from patent publication US11780830B2, “Triazolone derivatives or salts thereof and pharmaceutical compositions comprising the same” (YUHAN CORPORATION, priority 2018, dated 2023).

Common to all, as to format: biochemical
One assay concerns the target T1, recombinant human VAP-1 (Homo sapiens, UniProt Q16853).
T1 construct: purchased R&D systems
T1 sequence (Q16853 1-763): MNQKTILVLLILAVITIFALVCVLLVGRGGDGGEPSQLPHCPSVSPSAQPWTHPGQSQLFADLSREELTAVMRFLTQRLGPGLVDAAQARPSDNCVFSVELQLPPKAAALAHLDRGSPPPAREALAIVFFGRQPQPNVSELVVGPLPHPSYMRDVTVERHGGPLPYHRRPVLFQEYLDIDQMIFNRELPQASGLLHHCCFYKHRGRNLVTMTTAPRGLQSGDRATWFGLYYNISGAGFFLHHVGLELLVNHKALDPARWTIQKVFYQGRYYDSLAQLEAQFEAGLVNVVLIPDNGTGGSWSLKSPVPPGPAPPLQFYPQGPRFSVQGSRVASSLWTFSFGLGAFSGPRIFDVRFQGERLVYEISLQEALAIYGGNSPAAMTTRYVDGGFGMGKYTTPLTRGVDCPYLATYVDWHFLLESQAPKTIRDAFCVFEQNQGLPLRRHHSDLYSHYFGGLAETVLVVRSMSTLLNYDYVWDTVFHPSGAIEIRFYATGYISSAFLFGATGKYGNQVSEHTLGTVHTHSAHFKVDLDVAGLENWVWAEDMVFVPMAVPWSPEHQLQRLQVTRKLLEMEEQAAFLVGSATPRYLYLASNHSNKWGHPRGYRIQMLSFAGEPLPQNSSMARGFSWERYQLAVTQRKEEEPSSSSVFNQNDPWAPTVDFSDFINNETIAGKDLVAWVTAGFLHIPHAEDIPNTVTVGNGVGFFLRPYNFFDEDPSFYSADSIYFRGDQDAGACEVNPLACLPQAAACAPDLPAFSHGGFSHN
In words: Activity on recombinant human VAP-1, HRP-coupled Amplex Red hydrogen peroxide assay. As to conditions: substrate 1 mM benzylamine; compound incubated with enzyme at 37° C. for 30 minutes; pH 7.4; read-out: Inhibitory Activity (IC50, nM) human VAP-1. In short, it runs like this: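 Enzyme in 50 mM sodium phosphate (pH 7.4) is exposed to test compound for 30 min at 37 °C. Benzylamine (1 mM) with HRP and Amplex Red then starts the reaction, and the fluorescence rate, relative to a DMSO-only control, gives IC50.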

The target in assay [1] is T2, recombinant human DAO (diamine oxidase) (Homo sapiens, UniProt P19801).
T2 construct: purchased R&D systems
T2 sequence (P19801 20-751): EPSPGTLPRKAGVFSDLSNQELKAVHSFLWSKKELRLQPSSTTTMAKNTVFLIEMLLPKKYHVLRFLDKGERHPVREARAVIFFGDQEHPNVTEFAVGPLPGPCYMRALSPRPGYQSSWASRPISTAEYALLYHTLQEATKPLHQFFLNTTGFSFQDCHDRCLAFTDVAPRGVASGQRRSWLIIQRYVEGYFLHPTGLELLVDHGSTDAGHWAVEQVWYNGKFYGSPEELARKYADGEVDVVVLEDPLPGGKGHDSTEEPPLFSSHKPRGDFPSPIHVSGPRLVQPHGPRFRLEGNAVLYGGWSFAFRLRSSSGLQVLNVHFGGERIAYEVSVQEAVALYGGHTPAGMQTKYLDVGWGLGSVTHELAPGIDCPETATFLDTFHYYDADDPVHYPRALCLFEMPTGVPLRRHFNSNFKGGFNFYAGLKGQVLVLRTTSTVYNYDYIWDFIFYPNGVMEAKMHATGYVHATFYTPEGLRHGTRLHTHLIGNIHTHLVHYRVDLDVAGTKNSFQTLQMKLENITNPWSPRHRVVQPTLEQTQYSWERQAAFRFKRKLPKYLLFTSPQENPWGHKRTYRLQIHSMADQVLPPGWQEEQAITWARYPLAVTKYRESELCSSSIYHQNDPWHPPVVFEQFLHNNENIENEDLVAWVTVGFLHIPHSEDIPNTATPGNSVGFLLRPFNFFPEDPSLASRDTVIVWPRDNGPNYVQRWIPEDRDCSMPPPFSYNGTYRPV
As to the kind of experiment: Activity on recombinant human DAO, method similar to the VAP-1 assay. As to conditions: substrate 1 mM putrescine; read-out: Inhibitory Activity (IC50, nM) DAO. In short, it runs like this: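 Inhibition of recombinant human diamine oxidase (DAO, R&D systems) was assessed by the same approach as the VAP-1 assay, using 1 mM putrescine as substrate. Hydrogen peroxide formed was detected through an HRP-coupled Amplex Red reaction yielding fluorescent resorufin, read at 544 nm excitation and 590 nm emission. IC50 values came from four-parameter logistic fitting in GraphPad Prism.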

The target of assay [2] is T3, recombinant human MAO-B (monoamine oxidase-B) (Homo sapiens, UniProt P27338).
T3 construct: purchased Sigma-Aldrich
T3 sequence (P27338 1-520): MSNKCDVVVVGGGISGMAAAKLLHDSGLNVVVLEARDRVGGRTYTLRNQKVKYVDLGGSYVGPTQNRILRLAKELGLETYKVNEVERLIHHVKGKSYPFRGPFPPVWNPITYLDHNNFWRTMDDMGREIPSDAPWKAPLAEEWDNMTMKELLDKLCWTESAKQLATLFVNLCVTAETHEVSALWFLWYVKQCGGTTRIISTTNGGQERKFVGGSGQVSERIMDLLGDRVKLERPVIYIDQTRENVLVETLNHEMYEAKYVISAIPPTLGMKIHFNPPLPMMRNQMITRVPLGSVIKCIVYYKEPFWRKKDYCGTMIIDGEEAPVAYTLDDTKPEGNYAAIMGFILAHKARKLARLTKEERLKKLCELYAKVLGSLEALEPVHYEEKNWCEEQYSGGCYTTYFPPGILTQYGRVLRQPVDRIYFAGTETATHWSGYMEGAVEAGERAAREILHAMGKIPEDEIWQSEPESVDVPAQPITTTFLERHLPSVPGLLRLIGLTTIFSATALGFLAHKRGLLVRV
As to the kind of experiment: Activity on recombinant human MAO-B, method similar to the VAP-1 assay. As to conditions: substrate 1 mM benzylamine; read-out: Inhibitory Activity (IC50, nM) MAO-B. In short, it runs like this:
(§1)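 Enzyme in pH 7.4 phosphate buffer; 30 min, 37° C with compound (DMSO <1%); start with 200 uM Amplex Red + 1 U/mL HRP + tyramine 0.5 mM (MAO-A) or benzylamine 1 mM (MAO-B); kinetic read ex 544/em 590, 1-2 h; % rate decrease vs DMSO control → IC50, 4-parameter fit.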

The target in assay [3] is T4, recombinant human MAO-A (monoamine oxidase-A) (Homo sapiens, UniProt P21397).
T4 construct: purchased Sigma-Aldrich
T4 sequence (P21397 1-527): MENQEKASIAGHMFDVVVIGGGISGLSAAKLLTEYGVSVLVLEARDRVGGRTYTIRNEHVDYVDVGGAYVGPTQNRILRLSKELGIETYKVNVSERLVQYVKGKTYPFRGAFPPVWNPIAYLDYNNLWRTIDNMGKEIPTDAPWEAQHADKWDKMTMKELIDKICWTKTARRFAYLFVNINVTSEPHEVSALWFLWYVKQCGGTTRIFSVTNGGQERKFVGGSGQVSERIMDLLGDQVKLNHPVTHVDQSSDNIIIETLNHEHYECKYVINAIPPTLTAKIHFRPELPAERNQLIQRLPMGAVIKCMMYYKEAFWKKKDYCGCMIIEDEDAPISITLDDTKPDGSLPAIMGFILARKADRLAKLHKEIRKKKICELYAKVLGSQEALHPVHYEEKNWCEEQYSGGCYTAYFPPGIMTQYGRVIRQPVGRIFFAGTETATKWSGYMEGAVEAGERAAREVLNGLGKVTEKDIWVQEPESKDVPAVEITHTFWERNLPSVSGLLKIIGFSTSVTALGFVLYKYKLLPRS
In words: Activity on recombinant human MAO-A, method similar to the VAP-1 assay. As to conditions: substrate 0.5 mM tyramine; read-out: Inhibitory Activity (IC50, nM) MAO-A. An outline of the steps:
as §1

As for `CS(=O)(=O)c1ccc(-c2ccc(CCn3cnn(C/C(=C/F)CN)c3=O)s2)cc1` [Example 216, 2-[(2E)-2-(aminomethyl)-3-fluoroprop-2-en-1-yl]-4-(2-{5-[4-(methylsulfonyl)phenyl]thiophen-2-yl}ethyl)-2,4-dihydro-3H-1,2,4-triazol-3-one], the IC50 on recombinant human VAP-1 was 0.5 nM; in assay [1], 68 nM; in assay [2], 37000 nM; in assay [3] it was above 100000 nM.
The matching figures for `NC/C(=C\F)Cn1ncn(Cc2ccc(-c3ccc(N4CCNCC4)nc3)s2)c1=O` [Example 199, 2-[(2E)-2-(aminomethyl)-3-fluoroprop-2-en-1-yl]-4-({5-[6-(piperazin-1-yl)pyridin-3-yl]thiophen-2-yl}methyl)-2,4-dihydro-3H-1,2,4-triazol-3-one]: 8.8 nM, 1100 nM, above 100000 nM and above 100000 nM.
For the compound `NC/C(=C\F)Cn1ncn(Cc2ccc(-c3cnc4c(c3)COC(=O)N4)s2)c1=O` [Example 149, 6-[5-({1-[(2E)-2-(aminomethyl)-3-fluoroprop-2-en-1-yl]-5-oxo-1,5-dihydro-4H-1,2,4-triazol-4-yl}methyl)thiophen-2-yl]-1,4-dihydro-2H-pyrido[2,3-d][1,3]oxazin-2-one], the IC50 at recombinant human VAP-1 is 0.4 nM; in assay [1], 470 nM; in assay [2], 4500 nM; in assay [3], above 100000 nM.
For `NC/C(=C\F)Cn1ncn(Cc2ccc(-c3cnn(Cc4ccccc4)c3)s2)c1=O` [Example 151, 2-[(2E)-2-(aminomethyl)-3-fluoroprop-2-en-1-yl]-4-{[5-(1-benzyl-1H-pyrazol-4-yl)thiophen-2-yl]methyl}-2,4-dihydro-3H-1,2,4-triazol-3-one], the IC50 at recombinant human VAP-1 is 2.7 nM; in assay [1] it was 790 nM; in assay [2], 1500 nM; in assay [3], 59000 nM.
Take `NC/C(=C\F)Cn1ncn(Cc2ccc(-c3ccc4nsnc4c3)s2)c1=O` [Example 192, 2-[(2E)-2-(aminomethyl)-3-fluoroprop-2-en-1-yl]-4-{[5-(2,1,3-benzothiadiazol-5-yl)thiophen-2-yl]methyl}-2,4-dihydro-3H-1,2,4-triazol-3-one]: the IC50 is 1 nM at recombinant human VAP-1, 310 nM in assay [1], 120 nM in assay [2] and above 100000 nM in assay [3].
The matching figures for `NC/C(=C\F)Cn1ncn(Cc2ccc(-c3cccc(-c4ncon4)c3)s2)c1=O` [Example 34, 2-[(2E)-2-(aminomethyl)-3-fluoroprop-2-en-1-yl]-4-(5-[3-(1,2,4-oxadiazol-3-yl)phenyl]thiophen-2-ylmethyl)-2,4-dihydro-3H-1,2,4-triazol-3-one]: 2 nM, 660 nM, 116 nM and above 100000 nM.
Turning to `NC/C(=C\F)Cn1ncn(Cc2ccc(-c3ccc4c(c3)CNC4=O)s2)c1=O` [Example 68, 5-[5-(1-[(2E)-2-(aminomethyl)-3-fluoroprop-2-en-1-yl]-5-oxo-1,5-dihydro-4H-1,2,4-triazol-4-ylmethyl)thiophen-2-yl]-2,3-dihydro-1H-isoindol-1-one hydrochloride], the IC50 on recombinant human VAP-1 is 0.4 nM; in assay [1], 1000 nM; in assay [2], 1600 nM; in assay [3], above 100000 nM.
In the same order, the values of `NC/C(=C\F)Cn1ncn(Cc2ccc(-c3ccc(N4CCCC4=O)cc3)s2)c1=O` [Example 21, 2-[(2E)-2-(aminomethyl)-3-fluoroprop-2-en-1-yl]-4-(5-[4-(2-oxopyrrolidin-1-yl)phenyl]thiophen-2-ylmethyl)-2,4-dihydro-3H-1,2,4-triazol-3-one hydrochloride] are 2 nM, 1300 nM, 3000 nM and above 100000 nM.
The matching figures for `NC/C(=C\F)Cn1ncn(Cc2ccc(-c3ccc(F)c(F)c3)s2)c1=O` [Example 14, 2-[(2E)-2-(aminomethyl)-3-fluoroprop-2-en-1-yl]-4-[5-(3,4-difluorophenyl)thiophen-2-yl]methyl-2,4-dihydro-3H-1,2,4-triazol-3-one hydrochloride]: 6.5 nM, 2400 nM, below 100 nM and above 100000 nM.
In the same order, the values of `CCn1cc(-c2ccc(CCn3cnn(C/C(=C/F)CN)c3=O)s2)cn1` [Example 222, 2-[(2E)-2-(aminomethyl)-3-fluoroprop-2-en-1-yl]-4-{2-[5-(1-ethyl-1H-pyrazol-4-yl)thiophen-2-yl]ethyl}-2,4-dihydro-3H-1,2,4-triazol-3-one] are 0.7 nM, 890 nM, 38000 nM and above 100000 nM.
